Measurements published in patent publication US10206394B2, “Herbicidal compounds” (Syngenta Participations AG, priority 2014, dated 2019).
Like-named read-outs stand apart in the source and are kept apart here.

Assays:
Assay in all cases: Glasshouse assay for herbicidal activity (pre- and post-emergence), percentage phytotoxicity
Format in all cases: in vivo
[1] = test system: Avena fatua (AVEFA); conditions: Avena fatua
Description: (§1) Test—Glasshouse Assay for Herbicidal Activity
(§2) Seeds of a variety of monocotyledonous and dicotyledonous test plants are sown in standard soil in pots. The plants are cultivated for one day (for pre-emergence (PRE)) or for about 12 days (for post-emergence (POST)) under controlled conditions in a glasshouse (warm climate species at 24/18° C., cool climate species at 20/16° C., both at day/night; 16 hours light; 65% humidity).
(§3) The test plants are then grown on, in a glasshouse (greenhouse) under controlled conditions (warm climate species at 24/18° C., cool climate species at 20/16° C., both at day/night; 16 hours light; 65% humidity) and are watered twice daily. 15 days after application of the test herbicide (15 DAA) (for post-emergence), and 20 days after application of the test herbicide (20 DAA) (for pre-emergence), the test plants are evaluated visually, and an assessed percentage phytotoxicity score is given for each herbicidal application on each plant species (with 100%=total damage to plant; 0%=no damage to plant).
(§4) The plant species tested are as follows: Alopecurus myosuroides (ALOMY), Avena fatua (AVEFA), Lolium perenne (LOLPE), Echinochloa crus-galli (ECHCG).

[2] = test system: Alopecurus myosuroides (ALOMY); conditions: Alopecurus myosuroides
Description: as §1, §2, §3, §4

[3] = test system: Lolium perenne (LOLPE); conditions: Lolium perenne
Description: as §1, §2, §3, §4

[4] = test system: Echinochloa crus-galli (ECHCG); conditions: Echinochloa crus-galli
Description: as §1, §2, §3, §4

[5] = post-emergence, 360 h, Rate 250 g/ha, post-emergence, assessed visually 15 DAA, 100%=total damage, 0%=no damage, read-out: Post-emergence herbicidal activity (percentage phytotoxicity) AVEFA POST
[6] = pre-emergence, 480 h, Rate 250 g/ha, pre-emergence, assessed visually 20 DAA, 100%=total damage, 0%=no damage, read-out: Pre-emergence herbicidal activity (percentage phytotoxicity) AVEFA PRE
[7] = post-emergence, 360 h, Rate 250 g/ha, post-emergence, assessed visually 15 DAA, 100%=total damage, 0%=no damage, read-out: Post-emergence herbicidal activity (percentage phytotoxicity) ALOMY POST
[8] = pre-emergence, 480 h, Rate 250 g/ha, pre-emergence, assessed visually 20 DAA, 100%=total damage, 0%=no damage, read-out: Pre-emergence herbicidal activity (percentage phytotoxicity) ALOMY PRE
[9] = post-emergence, 360 h, Rate 250 g/ha, post-emergence, assessed visually 15 DAA, 100%=total damage, 0%=no damage, read-out: Post-emergence herbicidal activity (percentage phytotoxicity) LOLPE POST
[10] = pre-emergence, 480 h, Rate 250 g/ha, pre-emergence, assessed visually 20 DAA, 100%=total damage, 0%=no damage, read-out: Pre-emergence herbicidal activity (percentage phytotoxicity) LOLPE PRE
[11] = post-emergence, 360 h, Rate 250 g/ha, post-emergence, assessed visually 15 DAA, 100%=total damage, 0%=no damage, read-out: Post-emergence herbicidal activity (percentage phytotoxicity) ECHCG POST
[12] = pre-emergence, 480 h, Rate 250 g/ha, pre-emergence, assessed visually 20 DAA, 100%=total damage, 0%=no damage, read-out: Pre-emergence herbicidal activity (percentage phytotoxicity) ECHCG PRE
[13] = post-emergence, 360 h, POST-emergence, rate 250 g/ha, visual score 15 DAA (100%=total damage, 0%=no damage), read-out: Post-emergence herbicidal activity (percentage phytotoxicity) AVEFA POST
[14] = pre-emergence, 480 h, PRE-emergence, rate 250 g/ha, visual score 20 DAA (100%=total damage, 0%=no damage), read-out: Pre-emergence herbicidal activity (percentage phytotoxicity) AVEFA PRE
[15] = post-emergence, 360 h, POST-emergence, rate 250 g/ha, visual score 15 DAA (100%=total damage, 0%=no damage), read-out: Post-emergence herbicidal activity (percentage phytotoxicity) ALOMY POST
[16] = pre-emergence, 480 h, PRE-emergence, rate 250 g/ha, visual score 20 DAA (100%=total damage, 0%=no damage), read-out: Pre-emergence herbicidal activity (percentage phytotoxicity) ALOMY PRE
[17] = post-emergence, 360 h, POST-emergence, rate 250 g/ha, visual score 15 DAA (100%=total damage, 0%=no damage), read-out: Post-emergence herbicidal activity (percentage phytotoxicity) LOLPE POST
[18] = pre-emergence, 480 h, PRE-emergence, rate 250 g/ha, visual score 20 DAA (100%=total damage, 0%=no damage), read-out: Pre-emergence herbicidal activity (percentage phytotoxicity) LOLPE PRE
[19] = post-emergence, 360 h, POST-emergence, rate 250 g/ha, visual score 15 DAA (100%=total damage, 0%=no damage), read-out: Post-emergence herbicidal activity (percentage phytotoxicity) ECHCG POST
[20] = pre-emergence, 480 h, PRE-emergence, rate 250 g/ha, visual score 20 DAA (100%=total damage, 0%=no damage), read-out: Pre-emergence herbicidal activity (percentage phytotoxicity) ECHCG PRE
[21] = post-emergence, 360 h, post-emergence, 250 g/ha, 15 DAA, visual score (100%=total damage; 0%=no damage), read-out: AVEFA POST herbicidal activity (percentage phytotoxicity)
[22] = pre-emergence, 480 h, pre-emergence, 250 g/ha, 20 DAA, visual score (100%=total damage; 0%=no damage), read-out: AVEFA PRE herbicidal activity (percentage phytotoxicity)
[23] = post-emergence, 360 h, post-emergence, 250 g/ha, 15 DAA, visual score (100%=total damage; 0%=no damage), read-out: ALOMY POST herbicidal activity (percentage phytotoxicity)
[24] = pre-emergence, 480 h, pre-emergence, 250 g/ha, 20 DAA, visual score (100%=total damage; 0%=no damage), read-out: ALOMY PRE herbicidal activity (percentage phytotoxicity)
[25] = post-emergence, 360 h, post-emergence, 250 g/ha, 15 DAA, visual score (100%=total damage; 0%=no damage), read-out: LOLPE POST herbicidal activity (percentage phytotoxicity)
[26] = pre-emergence, 480 h, pre-emergence, 250 g/ha, 20 DAA, visual score (100%=total damage; 0%=no damage), read-out: LOLPE PRE herbicidal activity (percentage phytotoxicity)
[27] = post-emergence, 360 h, post-emergence, 250 g/ha, 15 DAA, visual score (100%=total damage; 0%=no damage), read-out: ECHCG POST herbicidal activity (percentage phytotoxicity)
[28] = pre-emergence, 480 h, pre-emergence, 250 g/ha, 20 DAA, visual score (100%=total damage; 0%=no damage), read-out: ECHCG PRE herbicidal activity (percentage phytotoxicity)

In the case of `Cc1cc(C)c(C2C(=O)CC(C(C)C(=O)NCc3ncccc3Cl)C2=O)c(C)c1` (centres unmarked) [Compound A167], the pest or weed control at 250 g/ha [1, 5] is reported as 70%, the pest or weed control at 250 g/ha [1, 6] is reported as 10% and the pest or weed control at 250 g/ha [2, 7] is reported as 20%. The pest or weed control at 250 g/ha [2, 8] was 20%, the pest or weed control at 250 g/ha [3, 9] was 60% and the pest or weed control at 250 g/ha [3, 10] was 80%. It also gave a pest or weed control at 250 g/ha [4, 11] of 80% and a pest or weed control at 250 g/ha [4, 12] of 80%.
For `Cc1cc(-c2ncc(F)cn2)cc(C)c1C1C(=O)CC(CC(=O)NC2CC2(F)F)C1=O` (centres unmarked) [Compound B292], the pest or weed control at 250 g/ha [1, 13] was 100%, the pest or weed control at 250 g/ha [1, 14] was 90% and the pest or weed control at 250 g/ha [2, 15] was 100%. It also gave a pest or weed control at 250 g/ha [2, 16] of 100%, a pest or weed control at 250 g/ha [3, 17] of 90% and a pest or weed control at 250 g/ha [3, 18] of 70%. It also gave a pest or weed control at 250 g/ha [4, 19] of 100% and a pest or weed control at 250 g/ha [4, 20] of 100%.
Work on `C/C=C/c1cc(C)c(C2C(=O)CC(CC(=O)N(C)C(C)(C)C)C2=O)c(CC)c1` (centres unmarked) [Compound B274] yielded a pest or weed control at 250 g/ha [1, 13] of 100%, a pest or weed control at 250 g/ha [1, 14] of 50% and a pest or weed control at 250 g/ha [2, 15] of 100%. The pest or weed control at 250 g/ha [2, 16] was 70%, the pest or weed control at 250 g/ha [3, 17] was 90% and the pest or weed control at 250 g/ha [3, 18] was 70%. It also gave a pest or weed control at 250 g/ha [4, 19] of 100% and a pest or weed control at 250 g/ha [4, 20] of 70%.
In the case of `Cc1cc(-c2ncc(Cl)cn2)cc(C)c1C1=C(OC(=O)c2ccc(F)cc2)CC(CC(=O)NC(C)(C)C)C1=O` (centres unmarked) [Compound P2], the pest or weed control at 250 g/ha [1, 21] is reported as 100%, the pest or weed control at 250 g/ha [1, 22] is reported as 90% and the pest or weed control at 250 g/ha [2, 23] is reported as 100%. For the same molecule, the pest or weed control at 250 g/ha [2, 24] was 90%, the pest or weed control at 250 g/ha [3, 25] was 100% and the pest or weed control at 250 g/ha [3, 26] was 100%. For the same molecule, the pest or weed control at 250 g/ha [4, 27] was 100% and the pest or weed control at 250 g/ha [4, 28] was 100%.
Molecule `Cc1cc(C)c(C2C(=O)CC(CC(=O)NC3COC3)C2=O)c(C)c1` (centres unmarked) [Compound A182] has a pest or weed control at 250 g/ha [1, 21] of 70%, a pest or weed control at 250 g/ha [1, 22] of 20% and a pest or weed control at 250 g/ha [2, 23] of 70%. For the same molecule, the pest or weed control at 250 g/ha [2, 24] was 70%, the pest or weed control at 250 g/ha [3, 25] was 40% and the pest or weed control at 250 g/ha [3, 26] was 70%. The pest or weed control at 250 g/ha [4, 27] was 80% and the pest or weed control at 250 g/ha [4, 28] was 0%.
Molecule `CC#Cc1cc(C)c(C2C(=O)CC(CC(=O)NC(C)(C)C)C2=O)c(C)c1` (centres unmarked) [Compound A31] has a pest or weed control at 250 g/ha [1, 5] of 100%, a pest or weed control at 250 g/ha [1, 6] of 90% and a pest or weed control at 250 g/ha [2, 7] of 100%. It also gave a pest or weed control at 250 g/ha [2, 8] of 100%, a pest or weed control at 250 g/ha [3, 9] of 100% and a pest or weed control at 250 g/ha [3, 10] of 100%. The pest or weed control at 250 g/ha [4, 11] was 100% and the pest or weed control at 250 g/ha [4, 12] was 100%.
For `Cc1cc(-c2ccc(Cl)cn2)cc(C)c1C1C(=O)CC(CC(=O)NCc2cccc(Cl)c2)C1=O` (centres unmarked) [Compound A134], the pest or weed control at 250 g/ha [1, 5] was 90%, the pest or weed control at 250 g/ha [1, 6] was 90% and the pest or weed control at 250 g/ha [2, 7] was 90%. For the same molecule, the pest or weed control at 250 g/ha [2, 8] was 70%, the pest or weed control at 250 g/ha [3, 9] was 100% and the pest or weed control at 250 g/ha [3, 10] was 80%. It also gave a pest or weed control at 250 g/ha [4, 11] of 100% and a pest or weed control at 250 g/ha [4, 12] of 90%.
